Experiments:
Type in all cases: cell-based, human
hPSC-CMs [1] = assay: Flow cytometry of differentiated cells (cTnT, MLC2v)
Protocol: Flow cytometry for internal antigens was done on dissociated cells using the same blocking, washing, secondary antibodies, and buffers as internal antigen immunofluorescence described above using mlc2v (proteintech, 1:100) and cardiac troponin T (Thermo Fisher Scientific, 1:200) in the 19-9-11 iPS cell line. Between washes and staining steps, dissociated cells were pelleted at 1,100 g for 5 minutes. Blocking and antibody staining steps were done in a volume of 100 μL, and washing steps in 1 mL in Eppendorf™ tubes.
Flow cytometry for live cell surface antigens was done on dissociated cells of the 19-9-11 iPS cell line with Thy1 biotin (1:200 Biolegend, with Life Technologies streptavidin direct conjugate at 1:1000) and SIRPα (1:200, Biolegend) in K20 and then analyzed at the UWCCC Flow Cytometry Laboratory using a BD LSRII Fortessa flow cytometer. For progenitor flow experiments, cells were dissociated as above for progenitor dissociation, centrifuged at 200×g, subjected to FACS to concentrate cells, and resuspended in 100 μL, of K2 media+rockI/Jag1 PE, BD Biosciences (1:20); Notch2 APC R&D Biosystems (1:10) and analyzed on either a BD FACSariaII cell sorter or BD LSRII Fortessa flow cytometer.

[2] = tested on: day 5 cardiac progenitor cells; assay: Propidium iodide cell cycle flow cytometry; conditions: day 5 cardiac progenitor cells
Protocol: Propidium iodide staining was performed on ethanol-fixed cells of the 19-9-11 iPS cell line with a low flow rate and linear mode fluorescence according to a previously published protocol (Darzynkiewicz and Juan, 2001).

NFκB signaling = assay: Western blot of NFκB and phosphorylated IκB in day 5 cardiac progenitors; conditions: pI:C days 3-5
Protocol: Frozen cell pellets from cardiac progenitors in the 19-9-11 iPS cell line were thawed and protein isolated in EBC lysis buffer (Boston BioProducts) supplemented with complete protease inhibitor tablets (Roche) rocking on ice for 1 hour to cause cell lysis. After the observation of lysis material and cell debris, protein/debris mixtures were centrifuged at >18,000×g for 15 minutes at 4° C. The protein-containing supernatant was quantified in a plate reader using the Biorad DC protein assay. 40 to 80 μg of protein was loaded in 6× βmercaptoethanol-containing Laemmli sample buffer (Biorad), boiled for 10 minutes at 95° C., then run on a 4-20% Criterion™ TGX™ gel (Biorad) for 30 minutes at 200 V. Proteins were then transferred at 10 V overnight at 4° C. to Immobilon-FL™ PVDF in a Criterion™ plate transfer cassette in Tris-Glycine transfer buffer (Biorad) with 20% methanol. Membranes were blocked for 1 hour at RT in Licor PBS blocking buffer, and then incubated with primary antibodies overnight 4° C. Antibodies were used at a dilution of 1:1000 (goat anti-Jag1, R&D systems) or 1:3000 (GAPDH, sigma) in Licor PBS blocking buffer. […] Licor secondary donkey anti-rabbit or anti-mouse antibodies were used at 1:15,000 for 1 hour at RT in Licor PBS blocking buffer, and after washing membranes were analyzed in a Licor Odyssey detection system. […]

cTnT isoforms = assay: Top-down mass spectrometry of cTnT isoforms (adult to fetal AUC ratio)
Protocol: Freshly isolated CMs from the H9-cTnT-GFP (FIG. 1) or 19-9-11 (FIG. 2) hPSC cell lines were washed with Ca^2+-free DPBS and centrifuged at 1,100 g for 5 minutes (min) and the wash solvent was removed. The cells were first homogenized in 50 μl HEPES solution (25 mM HEPES, pH 7.4, 2.5 mM EDTA, 100 mM NaF, 1 mM DTT, 10 mM L-methionine, 1 mM PMSF, 1 mM Na3VO4, protease inhibitor (Abcam) and phosphatase inhibitors). The homogenates were centrifuged at 17,000 g for 20 min and the HEPES extract containing predominately cytosolic proteins was collected. The remaining pellets were homogenized in 40 μl trifluoroacetic acid (TFA) solution (1% TFA, 5 mM tris(2-carboxyethyl)phosphine, 5 mM L-methionine) and centrifuged at 17,000 g for 20 min. The TFA extract containing predominantly the sarcomeric proteins was collected. Bradford protein assays were performed to determine the protein concentration. The sarcomeric protein-enriched extracts were diluted to 100 ng/μl for Liquid chromatography (LC)-MS analysis.
500 ng of each sarcomeric protein-enriched extract was injected to a home-packed reverse phase chromatography (RPC) column (PLRP-S, 10 μm particle size, 1000 A pore size, 500 μm inner diameter, 25 cm long), and the proteins were separated with a gradient of 5-95% mobile phase B (0.1% formic acid in 50:50 acetonitrile:ethanol) (mobile phase A: 0.1% formic acid in H2O) at a constant flowrate of 12 μl/min. The eluting proteins were analyzed by a high-resolution quadrupole-time of flight (q-TOF) mass spectrometer (Impact II, Bruker Daltonics) via electrospray ionization. The mass spectra were collected at a scan rate of 0.5 Hz for all samples being analyzed. Analyses of top-down mass spectra were performed using the vender-specific software DataAnalysis 3.2 (Bruker Daltonics).
Quantification of the sarcomeric protein isoforms was performed as previously described. […] The area under curve (AUC) of the EIC of a specific protein isoform represents the abundance of the selected protein isoform. […] Relative quantification of protein isoform expression was measured by the ratio of the AUCs.

hPSC-CMs [3] = assay: Optical action potential measurement (RH237)
Protocol: After hPSC-CM dissociation, day 30 to 60 lactate-purified hPSC-CMs from the 19-9-11 cell line were plated as 80 μL drops on areas of cover glass previously coated in drops of Synthemax® working solution of 80 μL (Corning) in the K20/2 dissociation and replating technique described above. After at least two days in K2 medium, the fast-equilibrating voltage-sensitive dye RH237 at 1 μM was added and live cells imaged in the cover glass in a Leica confocal microscope. Video files of individual cells were taken and filtered with the 50th FIR filter at a cutoff frequency of 128 Hz. The resulting action potentials were analyzed for rise time and voltage velocity in MATLAB. Individual cells were considered as replicates for statistical purposes and came from 4 cell preparations.

## polyinosinic-polycytidylic acid [pI:C]
hPSC-CMs [1]; comparable for pI:C-treated and untreated progenitors, hES and hiPS cell lines
  purity of cardiomyocytes marked by cardiac troponin T (cTnT) expression: 80-95%
hPSC-CMs [1]; day 30
  percentage of mlc2v+/cTnT+ hPSC-CMs: markedly increased
[2]
  fraction of cells in the G2/S phase of the cell cycle: increased
NFκB signaling
  phosphorylated IκB (NFκB pathway activation): showed expression of phosphorylated (inactivated) inhibitor IκB
cTnT isoforms; day 30 cardiomyocytes
  ratio of adult to fetal cTnT isoforms: increased the ratio of adult to fetal isoforms
cTnT isoforms; prolonged culture to day 122
  adult to fetal cTnT isoform ratio and relative difference treated vs untreated: increased dramatically
hPSC-CMs [3]; day 30 hPSC-CMs from pI:C-treated vs untreated progenitors
  optical upstroke velocity (rise time): significantly faster
hPSC-CMs [3]; spontaneous action potentials
  APD80: decrease
